Assay results reported in paper PMC8482815, “Targeting Host Glycolysis as a Strategy for Antimalarial Development” (Frontiers in Cellular and Infection Microbiology, 2021).
Several values for one entry are separate records, joined by “and”; a condition that tells them apart may be missing. Identical values can stand only once.

Test system: human erythrocytes
Experiment: Untargeted metabolomics and 13C-glucose tracing of enolase inhibitor treated erythrocytes
Assay type: cell-based
Conditions: 0h
Procedure: Freshly collected erythrocytes were washed, resuspended to 10% hematocrit in buffer [25mM HEPES (pH 7.4), 120mM NaCl, 5.4mM KCl, 1.8mM CaCl2, and 1mM NaH2PO4], incubated for 1 hour at 37°C, then centrifuged at 2000xg for 5 minutes at 4°C, resuspended in fresh wash buffer to 30-40% hematocrit, and split into 210µL aliquots of packed erythrocytes. […] All samples were incubated at 37°C shaking at 500 RPM. Triplicate samples of supernatants and packed erythrocytes were collected at 0, 0.5, 1, and 6-hour intervals and snap-frozen in liquid N2.
RBC and media samples were extracted at 1:10 and 1:20 dilutions, respectively, in 5:3:2 MeOH : MeCN:H2O v/v/v, and supernatants analyzed on a Thermo Vanquish UHPLC coupled to a Thermo Q Exactive mass spectrometer, as extensively described ([Nemkov et al., 2015]; [Nemkov et al., 2017]). The extraction buffer was supplemented with 40uM 3-^13C lactate to allow absolute quantification of lactate isotopologues, including lactate generated via glycolysis ([1,2,3-^13C3] enriched) vs. the pentose phosphate pathway ([2,3-^13C2] enriched), as described ([Reisz et al., 2016]). Metabolite assignments, peak area integration and isotopologues distributions were determined using Maven (Princeton University) ([Nemkov et al., 2015]; [Nemkov et al., 2017]).
Data were auto-scaled and normalized to zero-hour time points. Metabolites were removed from the dataset if greater than 50% of the samples contained missing values or the relative standard deviation among replicates exceeded 25%. Additionally, data was filtered using the interquartile range to reduce near-constant values from the experiment by 5%.
A principal component analysis of preprocessed data was plotted with the 95% confidence interval minimum volume enclosing ellipsoid for each respective group (MetaboAnalyst, cluster, plotly). A two-way repeated measures analysis of variance (ANOVA) was performed with multiple comparisons corrected for using a false discovery rate p-value cutoff of 0.05. Metabolite-Pathway analysis was performed using the R package of MetaboAnalyst, as previously described ([Xia and Wishart, 2010]). Metabolite-Protein nodal analysis was performed using omicsnet.ca and as previously described ([Zhou and Xia, 2018]).

[1] = treated erythrocytes, one value per replicate sample, polarity +
[2] = treated erythrocytes, one value per replicate sample, polarity -
[3] = treated erythrocytes, replicate samples

## CC(C)(C)C(=O)OCOP(=O)(OCOC(=O)C(C)(C)C)C1CC(O)N(O)C1=O (stereo not shown) [POMSF]
Replicate samples
  AMP level (metabolomics signal): 1.48E+06 and 1.22E+06 and 1.21E+06
  ATP level (metabolomics signal): 1.36E+04 and 1.16E+04 and 9.69E+03
  Adenine level (metabolomics signal): 1.41E+05 and 1.42E+05 and 1.51E+05
  Cytosine level (metabolomics signal): 4.50E+04 and 5.15E+04 and 1.27E+05
  L-alanine level (metabolomics signal): 6.40E+06 and 7.71E+06 and 9.55E+06
  L-arginine level (metabolomics signal): 1.10E+07 and 7.60E+06 and 2.77E+06
  L-asparagine level (metabolomics signal): 1.89E+06 and 2.56E+06 and 2.42E+06
  L-aspartate level (metabolomics signal): 1.71E+07 and 2.26E+07 and 2.06E+07
  L-cysteine level (metabolomics signal): 7.54E+05 and 3.33E+05 and 7.35E+04
  L-glutamate level (metabolomics signal): 1.88E+07 and 2.22E+07 and 2.32E+07
  L-glutamine level (metabolomics signal): 2.62E+07 and 2.59E+07 and 2.28E+07
  L-histidine level (metabolomics signal): 1.62E+06 and 1.23E+06 and 1.63E+06
  L-isoleucine level (metabolomics signal): 3.04E+07 and 2.95E+07 and 2.26E+07
  L-leucine level (metabolomics signal): 9.83E+07 and 1.22E+08 and 9.50E+07
  L-lysine level (metabolomics signal): 3.76E+06 and 3.81E+06 and 3.28E+06
  L-methionine level (metabolomics signal): 1.04E+07 and 1.29E+07 and 9.06E+06
  L-phenylalanine level (metabolomics signal): 4.95E+06 and 5.41E+06 and 4.32E+06
  L-proline level (metabolomics signal): 3.86E+07 and 3.62E+07 and 3.21E+07
  L-serine level (metabolomics signal): 1.54E+06 and 1.82E+06 and 2.05E+06
  L-threonine level (metabolomics signal): 2.66E+06 and 3.06E+06 and 2.69E+06
  L-tryptophan level (metabolomics signal): 5.64E+06 and 3.84E+06 and 3.64E+06
  L-tyrosine level (metabolomics signal): 1.11E+07 and 1.27E+07 and 8.94E+06
  L-valine level (metabolomics signal): 9.15E+07 and 1.15E+08 and 1.39E+08
  dCMP level (metabolomics signal): 3.07E+04 and 2.16E+04 and 2.21E+04
  dTMP level (metabolomics signal): 1.28E+06 and 1.67E+06 and 9.76E+05
  glycine level (metabolomics signal): 9.91E+05 and 9.30E+05 and 1.13E+06
[1]
  N-Acyl-D-aspartate (C06380) metabolite signal: 2.50E+05 and 2.72E+05 (2×)
  Poly-gamma-D-glutamate (C05723) metabolite signal: 1.72E+07 and 2.04E+07 and 1.59E+07
[2]
  D-Ribitol 5-phosphate (C01068) metabolite signal: 2.00E+04 and 3.48E+04 and 2.09E+04
  D-glucono-1,5-lactone (C00198) metabolite signal: 5.28E+05 and 7.59E+05 and 7.80E+05
  L-Noradrenaline (C00547) metabolite signal: 2.74E+05 and 1.74E+05 and 9.62E+04
  Oxalosuccinate (C05379) metabolite signal: 1.90E+05 and 1.88E+05 and 1.84E+05
  Pyridoxamine (C00534) metabolite signal: 3.31E+04 and 3.01E+04 and 2.36E+04
  Thioredoxin disulfide (C00343) metabolite signal: 8.00E+04 and 1.23E+05 and 3.03E+04
[3]
  1-4-beta-D-Xylan (metabolite signal): 2.50E+05 and 2.94E+05 and 2.54E+05
  2-Hydroxyglutarate/Citramalate (C02630) metabolite signal: 2.14E+05 and 2.40E+05 and 2.04E+05
  5-6-Dihydrothymine (C00906) metabolite signal: 3.14E+05 and 3.41E+05 and 2.85E+05
  5-10-Methenyltetrahydrofolate (metabolite signal): 2.33E+05 and 3.06E+05 and 3.71E+05
  5-Hydroxyisourate (C11821) metabolite signal: 2.99E+06 and 4.00E+06 and 4.10E+06
  5-L-Glutamyl-taurine (metabolite signal): 1.28E+05 and 9.38E+04 and 1.74E+05
  5-Oxoproline (metabolite signal): 1.06E+06 and 1.19E+06 and 1.05E+06
  (S)(+)-Allantoin (C02350) metabolite signal: 3.96E+04 and 4.19E+04 and 4.78E+04
  Allantoate (C00499) metabolite signal: 5.92E+05 and 4.20E+05 and 1.48E+05
  Ascorbate (metabolite signal): 1.27E+05 and 1.55E+05 and 1.07E+05
  CMP-N-acetylneuraminate (metabolite signal): 3.49E+04 and 6.40E+04 and 4.41E+04
  Carnosine (metabolite signal): 1.74E+05 and 2.21E+05 and 3.49E+05
  Citrate (C00158) metabolite signal: 3.66E+04 and 3.31E+04 and 3.64E+04
  Creatine (metabolite signal): 2.22E+08 and 2.62E+08 and 3.28E+08
  Creatinine (metabolite signal): 3.21E+06 and 3.75E+06 and 4.22E+06
  Cys-Gly (metabolite signal): 2.17E+06 and 2.00E+06 and 1.46E+06
  D-Glucosamine (metabolite signal): 1.02E+05 and 8.07E+04 and 1.48E+05
  D-Glucose (C00031) metabolite signal: 6.82E+06 and 7.47E+06 and 6.93E+06
  D-Ribose (C00121) metabolite signal: 1.55E+05 and 2.41E+05 and 2.38E+05
  Dehydroascorbate (metabolite signal): 1.97E+04 and 1.24E+04 and 6.28E+03
  Dihydrofolate (metabolite signal): 2.52E+06 and 2.25E+06 and 7.96E+05
  Dimethylglycine (metabolite signal): 8.88E+05 and 1.01E+06 and 1.45E+06
  Diphosphate (C00013) metabolite signal: 6.51E+03 and 2.62E+03 and 7.12E+02
  Fumarate (C00122) metabolite signal: 1.66E+05 and 1.93E+05 and 1.68E+05
  Glutathione (C00051) metabolite signal: 1.67E+08 and 1.41E+08 and 9.66E+07
  Glutathione disulfide (metabolite signal): 3.84E+05 and 6.78E+05 and 4.93E+05
  Hypoxanthine (C00262) metabolite signal: 1.47E+05 and 1.29E+05 and 1.33E+05
  IMP (C00130) metabolite signal: 7.71E+04 and 2.73E+04 and 2.17E+04
  Inosine (C00294) metabolite signal: 9.47E+04 and 1.13E+05 and 1.20E+05
  L-Citrulline (metabolite signal): 1.15E+06 and 1.84E+06 and 2.36E+06
  L-Homoserine (metabolite signal): 2.11E+05 and 2.32E+05 and 1.47E+05
  Lactate (C01432) metabolite signal: 7.24E+06 and 8.30E+06 and 8.24E+06
  Malate (C00149) metabolite signal: 5.52E+05 and 5.73E+05 and 5.31E+05
  Mannitol (C00392) metabolite signal: 8.67E+04 and 1.22E+05 and 1.45E+05
  N-Acetylneuraminate (metabolite signal): 2.28E+04 and 3.32E+04 and 3.78E+04
  N-Glycoloyl-neuraminate (metabolite signal): 2.22E+05 and 2.27E+05 and 1.72E+05
  NAD+ (C00003) metabolite signal: 4.26E+04 and 2.68E+05 and 2.34E+05
  Nicotinamide (C00153) metabolite signal: 1.57E+07 and 2.35E+07 and 2.66E+07
  Ornithine (metabolite signal): 2.19E+06 and 2.53E+06 and 2.49E+06
  Oxaloacetate (C00036) metabolite signal: 6.97E+04 and 6.01E+04 and 4.98E+04
  Phosphoserine (metabolite signal): 4.87E+04 and 2.38E+05 and 2.25E+05
  Putrescine (metabolite signal): 4.73E+04 and 6.21E+04 and 7.27E+04
  Pyridoxal (C00250) metabolite signal: 5.83E+04 and 4.46E+04 and 6.28E+04
  Pyruvate (C00022) metabolite signal: 1.18E+06 and 1.33E+06 and 1.20E+06
  S-Glutathionyl-L-cysteine (metabolite signal): 1.80E+05 and 2.28E+05 and 9.16E+04
  Sedoheptulose 1-phosphate (C06222) metabolite signal: 5.23E+04 and 6.25E+04 and 4.82E+04
  Spermidine (metabolite signal): 1.16E+07 and 9.80E+06 and 1.05E+07
  Spermine (metabolite signal): 9.70E+06 and 8.73E+06 and 7.99E+06
  Succinate (C00042) metabolite signal: 9.79E+04 and 1.14E+05 and 1.10E+05
  Thymidine (C00214) metabolite signal: 2.50E+04 and 1.31E+04 and 1.15E+04
  UDP (C00015) metabolite signal: 6.45E+05 and 4.64E+05 and 1.60E+05
  UDP-N-acetyl-D-glucosamine (metabolite signal): 3.60E+04 and 3.50E+04 and 3.40E+04
  UDP-glucose (C00029) metabolite signal: 1.12E+05 and 1.15E+05 and 9.19E+04
  Urate (C00366) metabolite signal: 4.94E+04 and 4.14E+04 and 3.72E+04
  Xanthine (C00385) metabolite signal: 2.85E+05 and 3.63E+05 and 3.38E+05
  alpha-D-Glucosamine 1-phosphate (metabolite signal): 1.10E+06 and 1.63E+06 and 3.07E+06
  alpha-D-Ribose 1-phosphate (C00620) metabolite signal: 1.48E+05 and 1.44E+05 and 1.26E+05
  gamma-Glutamyl-gamma-aminobutyrate (metabolite signal): 8.69E+04 and 8.91E+04 and 1.07E+05
  gamma-L-Glutamyl-D-alanine (metabolite signal): 2.41E+04 and 3.08E+04 and 2.52E+04
  gamma-L-Glutamyl-L-cysteine (metabolite signal): 4.83E+04 and 5.61E+04 and 6.44E+03
